Experimental data reported in paper PMC4965013, “Open Source Drug Discovery with the Malaria Box Compound Collection for Neglected Diseases and Beyond” (PLoS Pathogens, 2016).

Tests used:
[1] = tested on: P. falciparum 3D7 trophozoites; assay: Metabolomic fingerprint profiling LC-MS; format: cell-based, Plasmodium falciparum; design: UDP-D-glucose / ADP-D-glucose: unit not given here; conditions: for Acetyllysine / N-acetyl-L-ornithine / N-carbamoyl-L-aspartate / NADPH / dAMP / dCMP / dTDP / dTMP / dTTP / dihydroorotate / orotate / DLH / DLS/SDL/SID / PD / PEE / PVNF / 3-phosphoglycerate / ADP-D-glucose / ATP / CDP / D-sedoheptulose-1/7-phosphate / FAD / GMP / NAD+ / NADP+ / Octoluse Bisphosphate / Pyroglutamic acid / UDP-D-glucose / UDP-D-glucuronate / UDP-N-acetyl-glucosamine / UDP / UMP / UTP / a-ketoglutarate / citrate/isocitrate / cytidine / dATP / dGMP/AMP / fumarate / glucose-1/6-phosphate / glycerate / guanine / guanosine / hypoxanthine / indole / inosine / nicotinate / ornithine / phosphoenolpyruvate / pyruvate / ribose-phosphate / sarcosine/alanine / sn-glycerol-3-phosphate / succinate/methylmalonic acid / uridine / xanthosine: S2 Table Metabolomics; for Acetyllysine: metabolite Acetyllysine; for N-acetyl-L-ornithine: metabolite N-acetyl-L-ornithine; for N-carbamoyl-L-aspartate: metabolite N-carbamoyl-L-aspartate; for NADPH: metabolite NADPH; for dAMP: metabolite dAMP; for dCMP: metabolite dCMP; for dTDP: metabolite dTDP; for dTMP: metabolite dTMP; for dTTP: metabolite dTTP; for dihydroorotate: metabolite dihydroorotate; for orotate: metabolite orotate; for DLH: peptide DLH; for DLS/SDL/SID: peptide DLS/SDL/SID; for PD: peptide PD; for PEE: peptide PEE; for PVNF: peptide PVNF; for 3-phosphoglycerate: metabolite 3-phosphoglycerate; for ADP-D-glucose: metabolite ADP-D-glucose; for ATP: metabolite ATP; for CDP: metabolite CDP; for CDP / D-sedoheptulose-1/7-phosphate / GMP / Octoluse Bisphosphate / UDP / UMP / UTP / citrate/isocitrate / dGMP/AMP / fumarate / glucose-1/6-phosphate / glycerate / guanine / guanosine / inosine / pyruvate / sarcosine/alanine / succinate/methylmalonic acid / uridine / xanthosine: change in metabolite level after compound treatment; for D-sedoheptulose-1/7-phosphate: metabolite D-sedoheptulose-1/7-phosphate; for FAD: metabolite FAD; for GMP: metabolite GMP; for NAD+: metabolite NAD+; for NADP+: metabolite NADP+; for Octoluse Bisphosphate: metabolite Octoluse Bisphosphate; for Pyroglutamic acid: metabolite Pyroglutamic acid; for UDP-D-glucose: metabolite UDP-D-glucose; for UDP-D-glucuronate: metabolite UDP-D-glucuronate; for UDP-N-acetyl-glucosamine: metabolite UDP-N-acetyl-glucosamine; for UDP: metabolite UDP; for UMP: metabolite UMP; for UTP: metabolite UTP; for a-ketoglutarate: metabolite a-ketoglutarate; for citrate/isocitrate: metabolite citrate/isocitrate; for cytidine: metabolite cytidine; for dATP: metabolite dATP; for dGMP/AMP: metabolite dGMP/AMP; for fumarate: metabolite fumarate; for glucose-1/6-phosphate: metabolite glucose-1/6-phosphate; for glycerate: metabolite glycerate; for guanine: metabolite guanine; for guanosine: metabolite guanosine; for hypoxanthine: metabolite hypoxanthine; for indole: metabolite indole; for inosine: metabolite inosine; for 2_3-Diphosphoglyceric acid / 4-phosphopantothenate / 6-phospho-D-gluconate / FMN / IMP / Pyrophosphate / Sedoheptoluse bisphosphate / cyclic-AMP / glutathione disulfide / lactate / myo-inositol: metabolite level change after treatment; for nicotinate: metabolite nicotinate; for ornithine: metabolite ornithine; for phosphoenolpyruvate: metabolite phosphoenolpyruvate; for pyruvate: metabolite pyruvate; for ribose-phosphate: metabolite ribose-phosphate; for sarcosine/alanine: metabolite sarcosine/alanine; for sn-glycerol-3-phosphate: metabolite sn-glycerol-3-phosphate; for succinate/methylmalonic acid: metabolite succinate/methylmalonic acid; for uridine: metabolite uridine; for xanthosine: metabolite xanthosine
P. falciparum = assay: EC50 listed in S2 Table Metabolomics (used to set the concentration tested); format: cell-based; conditions: Plasmodium falciparum; EC50 used for Factor_XEC50 in metabolomics; read-out: EC50_nM

Compound: COc1ccc(C2=C(c3ccc(OC)cc3)C3(c4ccccc4)C(=O)C2(c2ccccc2)C2C(=O)N(c4ccc(C)cc4)C(=O)C23)cc1 (stereo not drawn) [MMV666101]
- Acetyllysine [1]: -0.1129
- N-acetyl-L-ornithine [1]: 0.1609
- N-carbamoyl-L-aspartate [1]: -0.002224
- NADPH [1]: -0.9507
- dAMP [1]: -0.2629
- dCMP [1]: 0.3804
- dTDP [1]: 0.03996
- dTMP [1]: 0.002701
- dTTP [1]: 0.2425
- dihydroorotate [1]: 0.3476
- orotate [1]: -0.884
- DLH [1]: 0.3443
- DLS/SDL/SID [1]: 0.3548
- PD [1]: 0.01018
- PEE [1]: 0.2697
- PVNF [1]: 0.3279
- 3-phosphoglycerate [1]: -0.07386
- ADP-D-glucose [1]: 0.1248
- ATP [1]: 0.5165
- CDP [1]: 0.04064
- D-sedoheptulose-1/7-phosphate [1]: 0.08624
- FAD [1]: 0.1013
- GMP [1]: 0.6118
- NAD+ [1]: -0.01164
- NADP+ [1]: 0.3941
- Octoluse Bisphosphate [1]: 0.2807
- Pyroglutamic acid [1]: 0.2222
- UDP-D-glucose [1]: -0.02174
- UDP-D-glucuronate [1]: 0.06413
- UDP-N-acetyl-glucosamine [1]: 0.01073
- UDP [1]: 0.07085
- UMP [1]: 0.1142
- UTP [1]: 0.03866
- a-ketoglutarate [1]: -0.8357
- citrate/isocitrate [1]: -1.04
- cytidine [1]: 0.3993
- dATP [1]: -0.09007
- dGMP/AMP [1]: -0.1266
- fumarate [1]: -0.05622
- glucose-1/6-phosphate [1]: 0.03368
- glycerate [1]: -0.6868
- guanine [1]: -0.559
- guanosine [1]: -0.9392
- hypoxanthine [1]: -0.6138
- indole [1]: -0.8533
- inosine [1]: -0.8697
- 2_3-Diphosphoglyceric acid [1]: 0.4338
- 4-phosphopantothenate [1]: -0.011
- 6-phospho-D-gluconate [1]: 0.058
- FMN [1]: 0.02064
- IMP [1]: -0.3616
- Pyrophosphate [1]: 0.3662
- Sedoheptoluse bisphosphate [1]: 0.08206
- cyclic-AMP [1]: -0.009901
- glutathione disulfide [1]: 0.01065
- lactate [1]: -0.9335
- myo-inositol [1]: -1.462
- nicotinate [1]: -1.016
- ornithine [1]: -0.4187
- phosphoenolpyruvate [1]: 0.02347
- pyruvate [1]: -0.8543
- ribose-phosphate [1]: -0.007312
- sarcosine/alanine [1]: 0.06192
- sn-glycerol-3-phosphate [1]: -0.02979
- succinate/methylmalonic acid [1]: -0.01842
- uridine [1]: -0.9813
- xanthosine [1]: -0.2752
- EC50 (P. falciparum): 148 nM

Compound: CCCN(CCC)CC(O)COc1ccccc1C(=O)Nc1ccccc1 (stereo not drawn) [MMV006455]
- Acetyllysine [1]: -1.84
- N-acetyl-L-ornithine [1]: -1.412
- N-carbamoyl-L-aspartate [1]: -1.358
- NADPH [1]: 1.245
- dAMP [1]: 1.1553
- dCMP [1]: -0.6709
- dTDP [1]: 0.7128
- dTMP [1]: 1.286
- dTTP [1]: -0.4381
- dihydroorotate [1]: -1.042
- orotate [1]: -1.326
- DLH [1]: -3.333
- DLS/SDL/SID [1]: -1.242
- PD [1]: -1.741
- PEE [1]: -6.259
- PVNF [1]: -1.503
- 3-phosphoglycerate [1]: 0.4787
- ADP-D-glucose [1]: 0.3541
- ATP [1]: 0.3304
- CDP [1]: 0.5091
- D-sedoheptulose-1/7-phosphate [1]: 0.2206
- FAD [1]: 0.7675
- GMP [1]: -0.1404
- NAD+ [1]: 0.6496
- NADP+ [1]: 1.103
- Octoluse Bisphosphate [1]: 0.1196
- Pyroglutamic acid [1]: -0.5503
- UDP-D-glucose [1]: 0.16
- UDP-D-glucuronate [1]: -0.0808
- UDP-N-acetyl-glucosamine [1]: 0.351
- UDP [1]: 0.8505
- UMP [1]: -0.5223
- UTP [1]: -1.889
- a-ketoglutarate [1]: -0.6936
- citrate/isocitrate [1]: -1.1034
- cytidine [1]: 1.29
- dATP [1]: -1.015
- dGMP/AMP [1]: 0.4722
- fumarate [1]: -1.1903
- glucose-1/6-phosphate [1]: 2.348
- glycerate [1]: 0.5071
- guanine [1]: 0.09569
- guanosine [1]: -0.9351
- hypoxanthine [1]: 0.1926
- indole [1]: -0.2645
- inosine [1]: 0.3717
- 2_3-Diphosphoglyceric acid [1]: 0.5499
- 4-phosphopantothenate [1]: 0.373
- 6-phospho-D-gluconate [1]: 0.458
- FMN [1]: 0.8429
- IMP [1]: 0.8206
- Pyrophosphate [1]: -0.6263
- Sedoheptoluse bisphosphate [1]: 0.2316
- cyclic-AMP [1]: 0.1549
- glutathione disulfide [1]: 0.487
- lactate [1]: 1.338
- myo-inositol [1]: 3.347
- nicotinate [1]: 0.09812
- ornithine [1]: -0.2237
- phosphoenolpyruvate [1]: 0.01215
- pyruvate [1]: 0.467
- ribose-phosphate [1]: -0.04809
- sarcosine/alanine [1]: -0.7349
- sn-glycerol-3-phosphate [1]: -0.3619
- succinate/methylmalonic acid [1]: -0.7549
- uridine [1]: 0.2304
- xanthosine [1]: -2.143
- EC50 (P. falciparum): 196 nM

Compound: CCCCCC(=O)N1c2ccccc2N=C2CC(c3ccc(OC)c(OC)c3)CC(O)=C2C1c1ccc(C(F)(F)F)cc1 (stereo not drawn) [MMV085583]
- Acetyllysine [1]: -3.233
- N-acetyl-L-ornithine [1]: -2.906
- N-carbamoyl-L-aspartate [1]: -0.5597
- NADPH [1]: 1.284
- dAMP [1]: 0.2596
- dCMP [1]: -0.4552
- dTDP [1]: -0.3582
- dTMP [1]: -0.9265
- dTTP [1]: 0.1067
- dihydroorotate [1]: -0.6697
- orotate [1]: -1.058
- DLH [1]: -2.5
- DLS/SDL/SID [1]: -2.559
- PD [1]: -2.735
- PEE [1]: -2.9857
- PVNF [1]: -3.329
- 3-phosphoglycerate [1]: 0.3606
- ADP-D-glucose [1]: -0.0158
- ATP [1]: -0.07202
- CDP [1]: -0.3911
- D-sedoheptulose-1/7-phosphate [1]: -0.5433
- FAD [1]: -0.3185
- GMP [1]: -0.4734
- NAD+ [1]: -0.2717
- NADP+ [1]: 0.1968
- Octoluse Bisphosphate [1]: -0.2833
- Pyroglutamic acid [1]: -0.1555
- UDP-D-glucose [1]: -0.1587
- UDP-D-glucuronate [1]: -0.1055
- UDP-N-acetyl-glucosamine [1]: -0.2414
- UDP [1]: -0.8399
- UMP [1]: -0.6631
- UTP [1]: -0.1073
- a-ketoglutarate [1]: -0.8202
- citrate/isocitrate [1]: -0.2512
- cytidine [1]: -0.09635
- dATP [1]: 0.2253
- dGMP/AMP [1]: -0.1442
- fumarate [1]: -0.4715
- glucose-1/6-phosphate [1]: -0.3133
- glycerate [1]: -0.7263
- guanine [1]: -0.4303
- guanosine [1]: -0.4531
- hypoxanthine [1]: -0.4709
- indole [1]: -0.4645
- inosine [1]: -0.4523
- 2_3-Diphosphoglyceric acid [1]: 0.1524
- 4-phosphopantothenate [1]: -0.4091
- 6-phospho-D-gluconate [1]: -0.01182
- FMN [1]: -0.2086
- IMP [1]: -0.3529
- Pyrophosphate [1]: 0.1499
- Sedoheptoluse bisphosphate [1]: 0.0221
- cyclic-AMP [1]: -0.3292
- glutathione disulfide [1]: -0.6201
- lactate [1]: -0.8724
- myo-inositol [1]: -1.425
- nicotinate [1]: 0.07742
- ornithine [1]: 0.02649
- phosphoenolpyruvate [1]: 0.334
- pyruvate [1]: -0.3941
- ribose-phosphate [1]: -0.07903
- sarcosine/alanine [1]: -0.9167
- sn-glycerol-3-phosphate [1]: 0.1681
- succinate/methylmalonic acid [1]: -0.405
- uridine [1]: -0.7297
- xanthosine [1]: 0.125
- EC50 (P. falciparum): 237 nM
